Data published in patent US9725465B2, “Biaryl acetamide compounds and methods of use thereof” (Ambit Biosciences Corporation, priority 2013, dated 2017).

Assays:
FLT3 kinase = FLT3 kinase (Homo sapiens (Human), UniProt P36888); experiment: Competition binding assay (Kd), FLT3; conditions: competition binding
KIT kinase = KIT kinase (Homo sapiens (Human), UniProt P10721); experiment: Competition binding assay (Kd), KIT; conditions: competition binding
In short: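 Kd derived from eleven-point threefold serial dilutions of compound competing with bead-bound ligand for kinase; bound kinase eluted and measured by quantitative PCR. Kinase supplied either as a T7 phage fusion or expressed in HEK-293 cells with a DNA tag; DMSO served as control.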

Chain of FLT3 kinase (P36888 27-993): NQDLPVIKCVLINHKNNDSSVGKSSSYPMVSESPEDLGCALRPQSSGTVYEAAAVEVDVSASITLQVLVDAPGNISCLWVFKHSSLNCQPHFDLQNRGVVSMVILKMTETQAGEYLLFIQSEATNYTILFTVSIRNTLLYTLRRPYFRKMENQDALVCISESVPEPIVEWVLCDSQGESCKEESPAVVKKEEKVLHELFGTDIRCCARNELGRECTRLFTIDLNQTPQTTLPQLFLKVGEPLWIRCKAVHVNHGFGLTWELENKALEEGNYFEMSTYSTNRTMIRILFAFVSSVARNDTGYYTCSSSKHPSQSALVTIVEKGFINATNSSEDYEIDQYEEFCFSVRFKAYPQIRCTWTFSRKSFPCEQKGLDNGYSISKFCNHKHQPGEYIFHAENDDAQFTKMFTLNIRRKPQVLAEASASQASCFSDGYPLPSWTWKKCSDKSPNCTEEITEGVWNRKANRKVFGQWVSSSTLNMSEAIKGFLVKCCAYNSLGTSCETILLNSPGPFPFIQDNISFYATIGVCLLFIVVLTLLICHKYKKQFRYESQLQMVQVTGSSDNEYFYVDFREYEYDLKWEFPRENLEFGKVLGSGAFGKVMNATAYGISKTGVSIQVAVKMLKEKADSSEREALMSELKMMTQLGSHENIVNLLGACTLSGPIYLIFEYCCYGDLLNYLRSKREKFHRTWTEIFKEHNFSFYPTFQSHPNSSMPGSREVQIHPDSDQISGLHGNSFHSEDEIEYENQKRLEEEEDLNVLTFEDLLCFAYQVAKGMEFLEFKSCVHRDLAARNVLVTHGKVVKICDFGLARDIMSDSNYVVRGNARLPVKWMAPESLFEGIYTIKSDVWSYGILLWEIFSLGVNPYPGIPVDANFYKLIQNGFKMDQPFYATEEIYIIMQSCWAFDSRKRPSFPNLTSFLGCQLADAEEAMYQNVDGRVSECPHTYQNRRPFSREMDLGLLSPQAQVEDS
Chain of KIT kinase (P10721 26-976): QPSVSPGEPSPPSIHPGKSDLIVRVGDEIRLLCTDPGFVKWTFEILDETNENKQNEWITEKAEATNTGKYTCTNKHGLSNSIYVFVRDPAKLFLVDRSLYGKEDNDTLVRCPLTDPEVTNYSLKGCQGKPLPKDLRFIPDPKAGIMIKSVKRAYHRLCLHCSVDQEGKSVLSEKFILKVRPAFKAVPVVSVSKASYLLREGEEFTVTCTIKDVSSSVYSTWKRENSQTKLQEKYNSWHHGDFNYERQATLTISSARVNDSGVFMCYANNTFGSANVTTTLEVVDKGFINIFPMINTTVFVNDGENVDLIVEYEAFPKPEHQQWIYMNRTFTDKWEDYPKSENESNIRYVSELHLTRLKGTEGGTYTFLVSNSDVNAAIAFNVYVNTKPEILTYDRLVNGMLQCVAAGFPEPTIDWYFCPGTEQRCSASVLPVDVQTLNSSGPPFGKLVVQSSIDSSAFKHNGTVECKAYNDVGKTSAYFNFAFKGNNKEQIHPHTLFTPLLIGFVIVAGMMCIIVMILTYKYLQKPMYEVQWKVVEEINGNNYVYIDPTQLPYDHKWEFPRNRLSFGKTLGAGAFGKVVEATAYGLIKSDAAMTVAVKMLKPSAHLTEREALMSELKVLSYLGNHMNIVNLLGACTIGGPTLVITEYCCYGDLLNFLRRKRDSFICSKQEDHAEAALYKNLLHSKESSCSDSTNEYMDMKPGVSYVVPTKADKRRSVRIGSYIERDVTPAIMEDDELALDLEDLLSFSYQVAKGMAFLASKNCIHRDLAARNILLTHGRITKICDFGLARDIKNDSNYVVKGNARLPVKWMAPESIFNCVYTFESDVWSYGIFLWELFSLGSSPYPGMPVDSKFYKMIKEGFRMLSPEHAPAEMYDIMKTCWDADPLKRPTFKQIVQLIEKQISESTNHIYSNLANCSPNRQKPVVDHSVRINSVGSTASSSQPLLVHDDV

Kd (FLT3 kinase)	Kd (KIT kinase)	SMILES
< 5 nM	< 5 nM	COc1cc2nc(-c3ccc(CC(=O)Nc4cc(C(C)(C)C)on4)cc3)cnc2cc1OCCN1CCOCC1 [Example 215, N-(5-tert-butylisoxazol-3-yl)-2-[4-[7-methoxy-6-(2-morpholino-ethoxy)quinoxalin-2-yl]phenyl]acetamide]
< 5 nM	< 5 nM	COc1cc2nc(-c3ccc(CC(=O)Nc4cc(C5(C(F)(F)F)CC5)on4)c(F)c3)cnc2cc1OCCN1CCS(=O)(=O)CC1 [Example 216, 2-[4-[6-[2-(1,1-dioxo-1,4-thiazinan-4-yl)ethoxy]-7-methoxy-quinoxalin-2-yl]-2-fluoro-phenyl]-N-[5-[1-(trifluoromethyl)cyclo-propyl]isoxazol-3-yl]acetamide]
< 5 nM	< 5 nM	COc1cc2ncc(-c3ccc(CC(=O)Nc4cc(C(C)(C)C(F)(F)F)on4)cc3F)nc2cc1OC [Example 217, 2-[4-(6,7-dimethoxyquinoxalin-2-yl)-3-fluoro-phenyl]-N-[5-(2,2,2-trifluoro-1,1-dimethyl-ethyl)isoxazol-3-yl]acetamide]
< 5 nM	< 5 nM	COc1cc2ncc(-c3cc(F)c(CC(=O)Nc4cc(C5(C(F)(F)F)CC5)on4)cc3F)nc2cc1OC [Example 218, 2-[4-(6,7-dimethoxyquinoxalin-2-yl)-2,5-difluoro-phenyl]-N-[5-[1-(trifluoro-methyl)cyclopropyl]isoxazol-3-yl]acetamide]
< 5 nM	< 5 nM	COc1cc2nc(-c3ccc(CC(=O)Nc4cc(C5(C(F)(F)F)CC5)on4)c(F)c3)cnc2cc1OCCCS(C)(=O)=O [Example 222, 2-[2-fluoro-4-[7-methoxy-6-(3-methylsulfonyl-propoxy)quinoxalin-2-yl]phenyl]-N-[5-[1-(trifluoromethyl)cyclo-propyl]isoxazol-3-yl]acetamide]
< 5 nM	< 5 nM	COc1cc2nc(-c3ccc(CC(=O)Nc4cc(C5(C(F)(F)F)CC5)on4)c(F)c3)cnc2cc1OCCN1CC2CC1CO2 (stereo not shown) [Example 224, 2-[2-fluoro-4-[7-methoxy-6-[2-(2-oxa-5-azabicyclo[2.2.1]heptan-5-yl)ethoxy]quinoxalin-2-yl]phenyl]-N-[5-[1-(trifluoromethyl)cyclo-propyl]isoxazol-3-yl]acetamide]
< 5 nM	< 5 nM	COc1cc2ncc(-c3cc(F)c(CC(=O)Nc4cc(C(C)(C)C(F)(F)F)on4)c(F)c3)nc2cc1OC [Example 225, 2-[4-(6,7-dimethoxyquinoxalin-2-yl)-2,6-difluoro-phenyl]-N-[5-(2,2,2-trifluoro-1,1-dimethyl-ethyl)isoxazol-3-yl]acetamide]
< 5 nM	< 5 nM	COc1cc2ncc(-c3cc(F)c(CC(=O)Nc4cc(C5(C(F)(F)F)CC5)on4)c(F)c3)nc2cc1OC [Example 226, 2-[4-(6,7-dimethoxyquinoxalin-2-yl)-2,6-difluoro-phenyl]-N-[5-[1-(trifluoromethyl)cyclo-propyl]isoxazol-3-yl]acetamide]
< 5 nM	< 5 nM	COc1cc2ncc(-c3ccc(CC(=O)Nc4cc(C5(C(F)(F)F)CC5)on4)c(F)c3)nc2cc1OCCCN [Example 227, 2-[4-[7-(3-aminopropoxy)-6-methoxy-quinoxalin-2-yl]-2-fluoro-phenyl]-N-[5-[1-(trifluoromethyl)cyclo-propyl]isoxazol-3-yl]acetamide]
< 5 nM	< 5 nM	COc1cc2nc(-c3ccc(CC(=O)Nc4cc(C5(C(F)(F)F)CC5)nn4C)c(F)c3)cnc2cc1OCCN1CCOCC1 [Example 228, 2-[2-fluoro-4-[7-methoxy-6-(2-morpholino-ethoxy)quinoxalin-2-yl]phenyl]-N-[2-methyl-5-[1-(trifluoromethyl)cyclo-propyl]pyrazol-3-yl]acetamide]
< 5 nM	< 5 nM	COc1cc2nc(-c3ccc(CC(=O)Nc4cc(C5(C(F)(F)F)CC5)on4)cc3)cnc2cc1OCCN1CCOCC1 [Example 231, 2-[4-[7-methoxy-6-(2-morpholinoethoxy)quinoxalin-2-yl]phenyl]-N-[5-[1-(trifluoromethyl)cyclo-propyl]isoxazol-3-yl]acetamide]
< 5 nM	< 5 nM	COc1cc2nc(-c3ccc(CC(=O)Nc4cc(C5(C(F)(F)F)CC5)on4)c(F)c3)cnc2cc1C(C)(O)CO (stereo not shown) [Example 233, 2-[4-[6-(1,2-dihydroxy-1-methyl-ethyl)-7-methoxy-quinoxalin-2-yl]-2-fluoro-phenyl]-N-[5-[1-(trifluoro-methyl)cyclopropyl]isoxazol-3-yl]acetamide]
< 5 nM	< 5 nM	COc1cc2ncc(-c3ccc(CC(=O)Nc4cc(C5(C(F)(F)F)CC5)on4)c(F)c3)nc2cc1OCCN1CCOCC1 [Example 234, 2-[2-fluoro-4-[6-methoxy-7-(2-morpholino-ethoxy)quinoxalin-2-yl]phenyl]-N-[5-[1-(trifluoro-methyl)cyclopropyl]isoxazol-3-yl]acetamide]
< 5 nM	< 5 nM	COc1cc2nc(-c3ccc(CC(=O)Nc4cc(C(C)(C)C(F)(F)F)n[nH]4)c(F)c3)cnc2cc1OCCN1CCOCC1 [Example 235, 2-[2-fluoro-4-[7-methoxy-6-(2-morpholino-ethoxy)quinoxalin-2-yl]phenyl]-N-[3-(2,2,2-trifluoro-1,1-dimethyl-ethyl)-1H-pyrazol-5-yl]acetamide]
< 5 nM	< 5 nM	COc1cc2ncc(-c3ccc(CC(=O)Nc4cc(C5(C(F)(F)F)CC5)on4)c(F)c3)nc2cc1OCC(C)(C)O [Example 239, 2-[2-fluoro-4-[7-(2-hydroxy-2-methyl-propoxy)-6-methoxy-quinoxalin-2-yl]phenyl]-N-[5-[1-(trifluoro-methyl)cyclopropyl]isoxazol-3-yl]acetamide]
< 5 nM	< 5 nM	COc1cc2nc(-c3ccc(CC(=O)Nc4cc(C5(C(F)(F)F)CC5)on4)c(F)c3)cnc2cc1OCCN1CCCOCC1 [Example 240, 2-[2-fluoro-4-[7-methoxy-6-[2-(1,4-oxazepan-4-yl)ethoxy]quinoxalin-2-yl]phenyl]-N-[5-[1-(trifluoromethyl)cyclo-propyl]isoxazol-3-yl]acetamide]

Further lines, the compound ahead of its results:

SMILES	Kd (FLT3 kinase)	Kd (KIT kinase)
COc1cc2ncc(-c3cc(F)c(CC(=O)Nc4cc(C(C)(C)C(F)(F)F)on4)cc3F)nc2cc1OC [Example 219, 2-[4-(6,7-dimethoxyquinoxalin-2-yl)-2,5-difluoro-phenyl]-N-[5-(2,2,2-trifluoro-1,1-dimethyl-ethyl)isoxazol-3-yl]acetamide]	< 5 nM	< 5 nM
CC(=O)NCCOc1cc2ncc(-c3ccc(CC(=O)Nc4cc(C(C)(C)C(F)(F)F)on4)c(F)c3)nc2cc1OCCNC(C)=O [Example 220, 2-[4-[6,7-bis(2-acetamidoethoxy)quinoxalin-2-yl]-2-fluoro-phenyl]-N-[5-(2,2,2-trifluoro-1,1-dimethyl-ethyl)isoxazol-3-yl]acetamide]	< 5 nM	< 5 nM
CC(=O)N(C)CCOc1cc2ncc(-c3ccc(CC(=O)Nc4cc(C(C)(C)C(F)(F)F)on4)c(F)c3)nc2cc1OCCN(C)C(C)=O [Example 221, 2-[4-[6,7-bis[2-[acetyl(methyl)amino]ethoxy]quinoxalin-2-yl]-2-fluoro-phenyl]-N-[5-(2,2,2-trifluoro-1,1-dimethyl-ethyl)isoxazol-3-yl]acetamide]	< 5 nM	< 5 nM
COc1cc2nc(-c3ccc(CC(=O)Nc4cc(C5(C(F)(F)F)CC5)on4)c(F)c3)cnc2cc1OCCN1CC2CC(C1)O2 [Example 223, 2-[2-fluoro-4-[7-methoxy-6-[2-(6-oxa-3-azabicyclo[3.1.1]heptan-3-yl)ethoxy]quinoxalin-2-yl]phenyl]-N-[5-[1-(trifluoromethyl)cyclo-propyl]isoxazol-3-yl]acetamide]	< 5 nM	< 5 nM
COc1cc2ncc(-c3cnc(CC(=O)Nc4cc(C(C)(C)C(F)(F)F)on4)c(F)c3)nc2cc1OC [Example 229, 2-[5-(6,7-dimethoxyquinoxalin-2-yl)-3-fluoro-2-pyridyl]-N-[5-(2,2,2-trifluoro-1,1-dimethyl-ethyl)isoxazol-3-yl]acetamide]	< 5 nM	< 5 nM
COc1cc2nc(-c3ccc(CC(=O)Nc4cc(C5(C(F)(F)F)CC5)n[nH]4)c(F)c3)cnc2cc1OCCN1CCOCC1 [Example 230, 2-[2-fluoro-4-[7-methoxy-6-(2-morpholino-ethoxy)quinoxalin-2-yl]phenyl]-N-[3-[1-(trifluoro-methyl)cyclopropyl]-1H-pyrazol-5-yl]acetamide]	< 5 nM	< 5 nM
COc1cc2cc(-c3ccc(CC(=O)Nc4cc(C5(C(F)(F)F)CC5)on4)c(F)c3)cnc2cc1OCCN1CCOCC1 [Example 232, 2-[2-fluoro-4-[6-methoxy-7-(2-morpholinoethoxy)-3-quinolyl]phenyl]-N-[5-[1-(trifluoromethyl)cyclo-propyl]isoxazol-3-yl]acetamide]	< 5 nM	< 5 nM
COc1cc2ncc(-c3ccc(CC(=O)Nc4cc(C5(C(F)(F)F)CC5)on4)c(F)c3)nc2cc1OCC(O)CO (stereo not shown) [Example 236, 2-[4-[7-(2,3-dihydroxypropoxy)-6-methoxy-quinoxalin-2-yl]-2-fluoro-phenyl]-N-[5-[1-(trifluoromethyl)cyclo-propyl]isoxazol-3-yl]acetamide]	< 5 nM	< 5 nM
COc1cc2nc(-c3ccc(CC(=O)Nc4cc(C5(C(F)(F)F)CC5)on4)c(F)c3)cnc2cc1OCCCNC(C)=O [Example 237, 2-[4-[6-(3-acetamidopropoxy)-7-methoxy-quinoxalin-2-yl]-2-fluoro-phenyl]-N-[5-[1-(trifluoromethyl)cyclo-propyl]isoxazol-3-yl]acetamide]	< 5 nM	< 5 nM
COc1cc2nc(-c3ccc(CC(=O)Nc4cc(C5(C(F)(F)F)CC5)on4)c(F)c3)cnc2cc1OCC(O)CO (stereo not shown) [Example 238, 2-[4-[6-(2,3-dihydroxypropoxy)-7-methoxy-quinoxalin-2-yl]-2-fluoro-phenyl]-N-[5-[1-(trifluoromethyl)cyclo-propyl]isoxazol-3-yl]acetamide]	< 5 nM	< 5 nM
